Experimental data: US12077503B2, “Substituted cyclic amides and their use as herbicides” (FMC CORPORATION, priority 2015, dated 2024)
Where two headings read alike, the source gives them in different places.

Assays:
Type in all cases: in vivo
Kochia (Kochia scoparia) = test: Test A preemergence; conditions: Bassia scoparia, pre-emergence, 240 h, preemergence, 0 to 100 scale where 0 is no effect and 100 is complete control, read-out: Kochia plant response rating; for pest or weed control at 125 g/ha: 125 g ai/ha; for pest or weed control at 500 g/ha: 500 g ai/ha
Method in brief: (§1)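 Ratings of 0 (no effect) to 100 (complete control) come from visual comparison with untreated controls roughly 10 d after treatment. Test chemicals, formulated in a non-phytotoxic solvent mixture with surfactant, were applied either as a preemergence directed soil spray on seeded soil or postemergence to one- to two-leaf plants 2 to 10 cm tall.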

[1] = tested on: barnyardgrass (Echinochloa crus-galli); test: Test A preemergence; conditions: Echinochloa crus-galli, pre-emergence, 240 h, preemergence, 0 to 100 scale where 0 is no effect and 100 is complete control, read-out: Barnyardgrass plant response rating; for pest or weed control at 125 g/ha: 125 g ai/ha; for pest or weed control at 500 g/ha: 500 g ai/ha
Method in brief: as §1

[2] = tested on: giant foxtail (Setaria faberii); test: Test A preemergence; conditions: Setaria faberi, pre-emergence, 240 h, preemergence, 0 to 100 scale where 0 is no effect and 100 is complete control, read-out: Foxtail, Giant plant response rating; for pest or weed control at 125 g/ha: 125 g ai/ha; for pest or weed control at 500 g/ha: 500 g ai/ha
Method in brief: as §1

[3] = tested on: pigweed (Amaranthus retroflexus); test: Test A preemergence; conditions: Amaranthus retroflexus, pre-emergence, 240 h, preemergence, 0 to 100 scale where 0 is no effect and 100 is complete control, read-out: Pigweed plant response rating; for pest or weed control at 125 g/ha: 125 g ai/ha; for pest or weed control at 500 g/ha: 500 g ai/ha
[4] = tested on: ragweed (common ragweed, Ambrosia elatior); test: Test A preemergence; conditions: Ambrosia artemisiifolia, pre-emergence, 240 h, preemergence, 0 to 100 scale where 0 is no effect and 100 is complete control, read-out: Ragweed plant response rating; for pest or weed control at 125 g/ha: 125 g ai/ha; for pest or weed control at 500 g/ha: 500 g ai/ha
Method in brief: as §1

[5] = tested on: ryegrass, Italian (Italian ryegrass, Lolium multiflorum); test: Test A preemergence; conditions: Lolium multiflorum, pre-emergence, 240 h, preemergence, 0 to 100 scale where 0 is no effect and 100 is complete control, read-out: Ryegrass, Italian plant response rating; for pest or weed control at 125 g/ha: 125 g ai/ha; for pest or weed control at 500 g/ha: 500 g ai/ha
Method in brief: as §1

[6] = tested on: Galium (catchweed bedstraw, Galium aparine); test: Test A postemergence; conditions: Galium, post-emergence, 240 h, postemergence; for pest or weed control at 125 g/ha: 125 g ai/ha, visual injury vs untreated controls after approx. 10 d, 0 = no effect, 100 = complete control, read-out: Galium plant response rating (0 to 100 scale); for pest or weed control at 500 g/ha: 500 g ai/ha, 0 to 100 scale, 0 is no effect, 100 is complete control, read-out: Galium plant response rating
Method in brief: as §1

[7] = tested on: barnyardgrass (Echinochloa crus-galli); test: Test A postemergence; conditions: Echinochloa crus-galli, post-emergence, 240 h, postemergence; for pest or weed control at 125 g/ha: 125 g ai/ha, visual injury vs untreated controls after approx. 10 d, 0 = no effect, 100 = complete control, read-out: Barnyardgrass plant response rating (0 to 100 scale); for pest or weed control at 500 g/ha: 500 g ai/ha, 0 to 100 scale, 0 is no effect, 100 is complete control, read-out: Barnyardgrass plant response rating
Method in brief: as §1

[8] = tested on: blackgrass (Alopecurus myosuroides); test: Test A postemergence; conditions: Alopecurus myosuroides, post-emergence, 240 h, postemergence; for pest or weed control at 125 g/ha: 125 g ai/ha, visual injury vs untreated controls after approx. 10 d, 0 = no effect, 100 = complete control, read-out: Blackgrass plant response rating (0 to 100 scale); for pest or weed control at 500 g/ha: 500 g ai/ha, 0 to 100 scale, 0 is no effect, 100 is complete control, read-out: Blackgrass plant response rating
Method in brief: as §1

corn (Zea mays) = test: Test A postemergence; conditions: Zea mays, post-emergence, 240 h, postemergence; for plant injury at 125 g/ha: 125 g ai/ha, visual injury vs untreated controls after approx. 10 d, 0 = no effect, 100 = complete control, read-out: Corn plant response rating (0 to 100 scale); for plant injury at 500 g/ha: 500 g ai/ha, 0 to 100 scale, 0 is no effect, 100 is complete control, read-out: Corn plant response rating
Method in brief: as §1

[9] = tested on: giant foxtail (Setaria faberii); test: Test A postemergence; conditions: Setaria faberi, post-emergence, 240 h, postemergence; for pest or weed control at 125 g/ha: 125 g ai/ha, visual injury vs untreated controls after approx. 10 d, 0 = no effect, 100 = complete control, read-out: Foxtail, Giant plant response rating (0 to 100 scale); for pest or weed control at 500 g/ha: 500 g ai/ha, 0 to 100 scale, 0 is no effect, 100 is complete control, read-out: Foxtail, Giant plant response rating
Method in brief: as §1

[10] = tested on: pigweed (Amaranthus retroflexus); test: Test A postemergence; conditions: Amaranthus retroflexus, post-emergence, 240 h, postemergence; for pest or weed control at 125 g/ha: 125 g ai/ha, visual injury vs untreated controls after approx. 10 d, 0 = no effect, 100 = complete control, read-out: Pigweed plant response rating (0 to 100 scale); for pest or weed control at 500 g/ha: 500 g ai/ha, 0 to 100 scale, 0 is no effect, 100 is complete control, read-out: Pigweed plant response rating
Method in brief: as §1

[11] = tested on: ragweed (common ragweed, Ambrosia elatior); test: Test A postemergence; conditions: Ambrosia artemisiifolia, post-emergence, 240 h, postemergence; for pest or weed control at 125 g/ha: 125 g ai/ha, visual injury vs untreated controls after approx. 10 d, 0 = no effect, 100 = complete control, read-out: Ragweed plant response rating (0 to 100 scale); for pest or weed control at 500 g/ha: 500 g ai/ha, 0 to 100 scale, 0 is no effect, 100 is complete control, read-out: Ragweed plant response rating
Method in brief: as §1

[12] = tested on: ryegrass, Italian (Italian ryegrass, Lolium multiflorum); test: Test A postemergence; conditions: Lolium multiflorum, post-emergence, 240 h, postemergence; for pest or weed control at 125 g/ha: 125 g ai/ha, visual injury vs untreated controls after approx. 10 d, 0 = no effect, 100 = complete control, read-out: Ryegrass, Italian plant response rating (0 to 100 scale); for pest or weed control at 500 g/ha: 500 g ai/ha, 0 to 100 scale, 0 is no effect, 100 is complete control, read-out: Ryegrass, Italian plant response rating
Method in brief: as §1

[13] = tested on: wheat (Triticum aestivum); test: Test A postemergence; conditions: Triticum aestivum, post-emergence, 240 h, postemergence; for plant injury at 125 g/ha: 125 g ai/ha, visual injury vs untreated controls after approx. 10 d, 0 = no effect, 100 = complete control, read-out: Wheat plant response rating (0 to 100 scale); for plant injury at 500 g/ha: 500 g ai/ha, 0 to 100 scale, 0 is no effect, 100 is complete control, read-out: Wheat plant response rating
Method in brief: as §1

[14] = visual injury rating, approximately 10 d

Structure (SMILES) | pest or weed control at 500 g/ha (Kochia (Kochia scoparia)) | pest or weed control at 500 g/ha [1] | pest or weed control at 500 g/ha [2] | pest or weed control at 500 g/ha [3] | pest or weed control at 500 g/ha [4] | pest or weed control at 500 g/ha [5] | pest or weed control at 125 g/ha [6] | pest or weed control at 500 g/ha [6] | pest or weed control at 125 g/ha [7] | pest or weed control at 500 g/ha [7] | pest or weed control at 125 g/ha [8] | pest or weed control at 500 g/ha [8] | plant injury at 125 g/ha (corn (Zea mays)) | plant injury at 500 g/ha (corn (Zea mays)) | pest or weed control at 125 g/ha [9] | pest or weed control at 500 g/ha [9] | pest or weed control at 125 g/ha [10] | pest or weed control at 500 g/ha [10] | pest or weed control at 125 g/ha [11] | pest or weed control at 500 g/ha [11] | other results
Cc1nc([C@H]2CNC(=O)[C@@H]2C(=O)Nc2ccccc2F)cs1 [Compound 1179] | 0% | 0% | 0% | 0% | 0% | 0% | 0% | 0% | 0% | 0% | 0% | 0% | 0% | 0% | 0% | 0% | 0% | 0% | 0% | 0% | pest or weed control at 125 g/ha (Kochia (Kochia scoparia); approx. 10 d): 0%; pest or weed control at 125 g/ha ([1]; approx. 10 d): 0%; pest or weed control at 125 g/ha ([2]; approx. 10 d): 0%; pest or weed control at 125 g/ha ([3]; approx. 10 d): 0%; pest or weed control at 125 g/ha ([4]; approx. 10 d): 0%; pest or weed control at 125 g/ha ([5]; approx. 10 d): 0%; pest or weed control at 125 g/ha [12]: 0%; pest or weed control at 500 g/ha [12]: 0%; plant injury at 125 g/ha [13]: 0%; plant injury at 500 g/ha [13]: 0%
O=C1NC[C@H](c2nccs2)[C@H]1C(=O)Nc1ccccc1F [Compound 1181] | 0% | 0% | 0% | 0% | 0% | 0% | 0% | 0% | 0% | 0% | 0% | 0% | 0% | 0% | 0% | 0% | 0% | 0% | 0% | 0% | pest or weed control at 125 g/ha (Kochia (Kochia scoparia); approx. 10 d): 0%; pest or weed control at 125 g/ha ([1]; approx. 10 d): 0%; pest or weed control at 125 g/ha ([2]; approx. 10 d): 0%; pest or weed control at 125 g/ha ([3]; approx. 10 d): 0%; pest or weed control at 125 g/ha ([4]; approx. 10 d): 0%; pest or weed control at 125 g/ha ([5]; approx. 10 d): 0%; pest or weed control at 125 g/ha [12]: 0%; pest or weed control at 500 g/ha [12]: 0%; plant injury at 125 g/ha [13]: 0%; plant injury at 500 g/ha [13]: 0%
Cc1ccc([C@H]2CCN(C)C(=O)[C@@H]2C(=O)Nc2ccc(F)c(F)c2F)cc1 [Compound 1221] | 50% | 100% | 100% | 50% | 70% | 80% | 40% | 60% | 30% | 60% | 60% | 70% | 0% | 60% | 90% | 90% | 0% | 0% | 0% | 20% | pest or weed control at 125 g/ha (Kochia (Kochia scoparia); [14]): 40%; pest or weed control at 125 g/ha [1, 14]: 90%; pest or weed control at 125 g/ha [2, 14]: 90%; pest or weed control at 125 g/ha [3, 14]: 0%; pest or weed control at 125 g/ha [4, 14]: 20%; pest or weed control at 125 g/ha [5, 14]: 20%; pest or weed control at 125 g/ha [12]: 20%; pest or weed control at 500 g/ha [12]: 70%; plant injury at 125 g/ha [13]: 20%; plant injury at 500 g/ha [13]: 60%
